Measurements as given in patent US20220119688A1, “LAMINATE, LIQUID CRYSTAL DISPLAY DEVICE, AND ORGANIC ELECTROLUMINESCENT DISPLAY DEVICE” (FUJIFILM Corporation, priority 2019, published 2022).

Assay: Evaluation of moisture-heat resistance: turbidity (crystal precipitation) in the transparent resin film
Assay type: physicochemical
Conditions: amount of 3.5 parts by mass or more
Procedure: (Evaluation of Moisture-Heat Resistance)
The transparent resin films A-1 to A-14 and B-1 to B-3 were aged for 20 days under moisture heat conditions of a temperature of 85° C. and a humidity of 85%, and the presence or absence of turbidity (crystal precipitation) in the transparent resin film was evaluated according to the following standards.
(Evaluation Standards for Turbidity)
A: Almost no change in appearance such as turbidity due to crystal precipitation is observed.

**Q.** Which crystal precipitation does the source give for `CCCCC(CC)COC(=O)/C(C#N)=C\C=C1/CCCN1C` (centres unmarked) [UV-5] here?
**A.** caused crystal precipitation

**Q.** For `CCCCCCCCCOC(=O)/C(C#N)=C/C=C/N(CC)CC` [UV-4], which crystal precipitation is on record?
**A.** caused crystal precipitation
